The results in this text go back to patent US11932658B2 (BRISTOL-MYERS SQUIBB COMPANY, priority 2016, dated 2024).

This assay has as its target T1, PAR4 (Homo sapiens, UniProt Q96RI0).
T1 construct: expressed in transfected cells; host or cells: HEK293 PAR4 Clone 1.2A (BMS Arctic ID 383940)
T1 sequence (Q96RI0 18-385): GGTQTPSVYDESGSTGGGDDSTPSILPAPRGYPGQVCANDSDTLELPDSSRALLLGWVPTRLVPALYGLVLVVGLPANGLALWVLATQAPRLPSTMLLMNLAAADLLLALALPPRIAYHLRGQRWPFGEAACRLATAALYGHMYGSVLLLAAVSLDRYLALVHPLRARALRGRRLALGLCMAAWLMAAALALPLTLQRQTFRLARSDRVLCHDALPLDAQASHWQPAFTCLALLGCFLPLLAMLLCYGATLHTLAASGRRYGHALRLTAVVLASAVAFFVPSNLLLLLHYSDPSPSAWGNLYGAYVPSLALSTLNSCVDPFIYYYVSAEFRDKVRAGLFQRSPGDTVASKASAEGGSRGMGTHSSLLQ
Nature of the assay: PAR4 FLIPR assay (antagonism of agonist peptide-induced calcium mobilization). In kind it is cell-based. The method, boiled down:
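Antagonism was taken as block of calcium mobilization evoked by the agonist peptide H-Ala-Phe(4-F)-Pro-Gly-Trp-Leu-Val-Lys-Asn-[…]-NH2, added after 30 min room-temperature compound preincubation in dye-loaded PAR4-transfected HEK293 cells (endogenous PAR1). Fluorescence was read on FDSS, with compound addition alone used as the agonist counter-screen; values come from 11-point concentration-response curves.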

Consider `COC(=O)[C@@H]1Cc2c(ccc3nc(-c4cc(C)cc5nc(OC)cnc45)sc23)O1` [Example 156, (S)-methyl 2-(2-methoxy-7-methylquinoxalin-5-yl)-7,8-dihydrobenzofuro[5,4-d]thiazole-7-carboxylate], for which the IC50 worked out at 28 nM. As to `COc1cnc2c(-c3nc4cc(F)c5c(c4s3)C[C@H](COC(=O)Nc3cccnc3)O5)cc(C)cc2n1` [Example 157, (R)-(5-fluoro-2-(2-methoxy-7-methylquinoxalin-5-yl)-7,8-dihydrobenzofuro[5,4-d]thiazo 1-7-yl)methyl pyridin-3-ylcarbamate], the IC50 is 0.8 nM. As to `COc1cnc2c(-c3nc4cc(F)c5c(c4s3)C[C@H](COC(=O)Nc3ccc(C)nc3)O5)cc(C)cc2n1` [Example 159, (R)-(5-fluoro-2-(2-methoxy-7-methylquinoxalin-5-yl)-7,8-dihydrobenzofuro[5,4-d]thiazol-7-yl)methyl (6-methylpyridin-3-yl)carbamate], the IC50 came out at 0.6 nM.

As for `COc1cnc2c(-c3nc4cc(F)c5c(c4s3)C[C@H](COC(=O)Nc3ccnc(C)c3)O5)cc(C)cc2n1` [Example 160, (R)-(5-fluoro-2-(2-methoxy-7-methylquinoxalin-5-yl)-7,8-dihydrobenzofuro[5,4-d]thiazol-7-yl)methyl (2-methylpyridin-4-yl)carbamate], the IC50 was 0.6 nM. Regarding `COc1cnc2c(-c3nc4cc(F)c5c(c4s3)C[C@H](COC(=O)Nc3cncc(F)c3)O5)cc(C)cc2n1` [Example 161, (R)-(5-fluoro-2-(2-methoxy-7-methylquinoxalin-5-yl)-7,8-dihydrobenzofuro[5,4-d]thiazo 1-7-yl)methyl (5-fluoropyridin-3-yl)carbamate], the IC50 was determined as 1.1 nM. For `COc1cnc2c(-c3nc4cc(F)c5c(c4s3)C[C@H](COC(=O)Nc3cccc(C#N)c3)O5)cc(C)cc2n1` [Example 162, (R)-(5-fluoro-2-(2-methoxy-7-methylquinoxalin-5-yl)-7,8-dihydrobenzofuro[5,4-d]thiazol-7-yl)methyl (3-cyanophenyl)carbamate], the IC50 worked out at 0.7 nM. The figure for `COc1cc(NC(=O)OC[C@H]2Cc3c(c(F)cc4nc(-c5cc(C)cc6nc(OC)cnc56)sc34)O2)ccn1` [Example 163, (R)-(5-fluoro-2-(2-methoxy-7-methylquinoxalin-5-yl)-7,8-dihydrobenzofuro[5,4-d]thiazo 1-7-yl)methyl (2-methoxypyridin-4-yl)carbamate] is 160 nM; for `COc1ccc(NC(=O)OC[C@H]2Cc3c(c(F)cc4nc(-c5cc(C)cc6nc(OC)cnc56)sc34)O2)cn1` [Example 164, (R)-(5-fluoro-2-(2-methoxy-7-methylquinoxalin-5-yl)-7,8-dihydrobenzofuro[5,4-d]thiazo 1-7-yl)methyl (6-methoxypyridin-3-yl)carbamate] it is 1.6 nM.

Regarding `COc1cnc2c(-c3nc4cc(F)c5c(c4s3)C[C@H](COC(=O)Nc3ccc(OCCO)nc3)O5)cc(C)cc2n1` [Example 165, (R)-(5-fluoro-2-(2-methoxy-7-methylquinoxalin-5-yl)-7,8-dihydrobenzofuro[5,4-d]thiazo 1-7-yl)methyl (6-(2-hydroxyethoxy)pyridin-3-yl)carbamate], the IC50 was 1 nM. For `COc1cnc2c(-c3nc4cc(F)c5c(c4s3)C[C@H](COC(=O)Nc3ccc(OCC(F)(F)CO)nc3)O5)cc(C)cc2n1` [Example 166, (R)-(5-fluoro-2-(2-methoxy-7-methylquinoxalin-5-yl)-7,8-dihydrobenzofuro[5,4-d]thiazo 1-7-yl)methyl (6-(2,2-difluoro-3-hydroxypropoxy)pyridin-3-yl)carbamate], the IC50 turned out to be 1.1 nM. As to `COc1cnc2c(-c3nc4cc(F)c5c(c4s3)CC(C)(CO)O5)cc(C)cc2n1` (centres unmarked) [Example 167, (5-fluoro-2-(2-methoxy-7-methylquinoxalin-5-yl)-7-methyl-7,8-dihydrobenzofuro[5,4-d]thiazol-7-yl)methanol], the IC50 came to 3.1 nM. In the case of `COc1cncc(NC(=O)OC[C@H]2Cc3c(c(F)cc4nc(-c5cc(C)cc6nc(OC)cnc56)sc34)O2)c1` [Example 168, (R)-(5-fluoro-2-(2-methoxy-7-methylquinoxalin-5-yl)-7,8-dihydrobenzofuro[5,4-d]thiazo 1-7-yl)methyl (5-methoxypyridin-3-yl)carbamate] it was 5 nM; in that of `COc1cnc2c(-c3nc4cc(F)c5c(c4s3)C[C@H](COC(=O)Nc3ccc(C(=O)N4CCOCC4)cc3)O5)cc(C)cc2n1` [Example 169, (R)-(5-fluoro-2-(2-methoxy-7-methylquinoxalin-5-yl)-7,8-dihydrobenzofuro[5,4-d]thiazol-7-yl)methyl (4-(morpholine-4-carbonyl)phenyl)carbamate], 6.6 nM.

With `COc1cnc2c(-c3nc4cc(F)c5c(c4s3)C[C@H](COC(=O)Nc3ccc(F)nc3)O5)cc(C)cc2n1` [Example 170, (R)-(5-fluoro-2-(2-methoxy-7-methylquinoxalin-5-yl)-7,8-dihydrobenzofuro[5,4-d]thiazo 1-7-yl)methyl (6-fluoropyridin-3-yl)carbamate], the IC50 worked out at 5.7 nM.

Regarding `COc1cnc2c(-c3nc4ccc5c(c4s3)CC(C)(CO)O5)cc(C)cc2n1` (centres unmarked) [Example 171, (2-(2-methoxy-7-methylquinoxalin-5-yl)-7-methyl-7,8-dihydrobenzofuro[5,4-d]thiazol-7-yl)methanol], the IC50 was 45 nM.

`COc1cnc2c(-c3nc4cc(F)c5c(c4s3)C[C@@](C)(CO)O5)cc(C)cc2n1` [Example 172, (S)-(5-fluoro-2-(2-methoxy-7-methylquinoxalin-5-yl)-7-methyl-7,8-dihydrobenzofuro[5,4-d]thiazol-7-yl)methanol]: the IC50 came out at 1.1 nM. For `COc1cnc2c(-c3nc4cc(F)c5c(c4s3)C[C@H](COC(=O)Nc3cnc(OCCO)nc3)O5)cc(C)cc2n1` [Example 173, (R)-(5-fluoro-2-(2-methoxy-7-methylquinoxalin-5-yl)-7,8-dihydrobenzofuro[5,4-d]thiazo 1-7-yl)methyl (2-(2-hydroxyethoxy)pyrimidin-5-yl)carbamate], the IC50 amounted to 1.3 nM. The figure for `COc1cnc2c(-c3nc4cc(F)c5c(c4s3)C[C@@](C)(COC(=O)Nc3cnc(C)nc3)O5)cc(C)cc2n1` [Example 174, (S)-(5-fluoro-2-(2-methoxy-7-methylquinoxalin-5-yl)-7-methyl-7,8-dihydrobenzofuro[5,4-d]thiazol-7-yl)methyl (2-methylpyrimidin-5-yl)carbamate] is 30 nM.

For the molecule `COc1cnc2c(-c3nc4cc(F)c5c(c4s3)C[C@@](C)(COC(=O)Nc3cccnc3)O5)cc(C)cc2n1` [Example 175, (S)-(5-fluoro-2-(2-methoxy-7-methylquinoxalin-5-yl)-7-methyl-7,8-dihydrobenzofuro[5,4-d]thiazol-7-yl)methyl pyridin-3-ylcarbamate], the IC50 is 19 nM. The figure for `COc1cnc2c(-c3nc4cc(F)c5c(c4s3)C[C@@](C)(COC(=O)Nc3cccc(C#N)c3)O5)cc(C)cc2n1` [Example 176, (S)-(5-fluoro-2-(2-methoxy-7-methylquinoxalin-5-yl)-7-methyl-7,8-dihydrobenzofuro[5,4-d]thiazol-7-yl)methyl (3-cyanophenyl)carbamate] is 6.1 nM. In the case of `COc1cnc2c(-c3nc4cc(F)c5c(c4s3)C[C@H](COC(=O)Nc3cnc(OC)nc3)O5)cc(C)cc2n1` [Example 177, (R)-(5-fluoro-2-(2-methoxy-7-methylquinoxalin-5-yl)-7,8-dihydrobenzofuro[5,4-d]thiazol-7-yl)methyl (2-methoxypyrimidin-5-yl)carbamate] it was 2.8 nM; in that of `COc1cnc2c(-c3nc4cc(F)c5c(c4s3)C[C@H](COC(=O)Nc3ccc4c(c3)C(=O)NC4)O5)cc(C)cc2n1` [Example 178, (R)-(5-fluoro-2-(2-methoxy-7-methylquinoxalin-5-yl)-7,8-dihydrobenzofuro[5,4-d]thiazo 1-7-yl)methyl (3-oxoisoindolin-5-yl)carbamate], 2.3 nM; in that of `COc1cnc2c(-c3nc4cc(F)c5c(c4s3)C[C@H](COC(=O)Nc3cc(F)cc(C#N)c3)O5)cc(C)cc2n1` [Example 179, (R)-(5-fluoro-2-(2-methoxy-7-methylquinoxalin-5-yl)-7,8-dihydrobenzofuro[5,4-d]thiazo 1-7-yl)methyl (3-cyano-5-fluorophenyl)carbamate], 2.4 nM. The figure for `COc1cnc2c(-c3nc4cc(F)c5c(c4s3)C[C@H](COC(=O)Nc3cccc(C(N)=O)c3)O5)cc(C)cc2n1` [Example 180, (R)-(5-fluoro-2-(2-methoxy-7-methylquinoxalin-5-yl)-7,8-dihydrobenzofuro[5,4-d]thiazol-7-yl)methyl (3-carbamoylphenyl)carbamate] is 1.6 nM; for `COc1cnc2c(-c3nc4cc(F)c5c(c4s3)C[C@](C)(CO)O5)cc(C)cc2n1` [Example 181, (R)-(5-fluoro-2-(2-methoxy-7-methylquinoxalin-5-yl)-7-methyl-7,8-dihydrobenzofuro[5,4-d]thiazol-7-yl)methanol] it is 52 nM. For the molecule `COc1cnc2c(-c3nc4cc(F)c5c(c4s3)C[C@](C)(COC(=O)Nc3cnc(C)nc3)O5)cc(C)cc2n1` [Example 182, (R)-(5-fluoro-2-(2-methoxy-7-methylquinoxalin-5-yl)-7-methyl-7,8-dihydrobenzofuro[5,4-d]thiazol-7-yl)methyl (2-methylpyrimidin-5-yl)carbamate], the IC50 amounted to 2.6 nM.
